Experimental data as given in publication PMC6743422, “Preclinical disposition of MGS0274 besylate, a prodrug of a potent group II metabotropic glutamate receptor agonist MGS0008 for the treatment of schizophrenia” (Pharmacology Research & Perspectives, 2019).
Entries after “also recorded” stand apart in the source; their conditions may differ. Like-named read-outs stand apart in the source and are kept apart here.

Tests used:
[1] = Plasma and CSF distribution of MGS0008 in rats; type: in vivo; conditions: Wistar, rat, fasted male rats, MGS0008 oral 3 mg/kg
Experimental: The pharmacokinetic profiles of MGS0008 and MGS0274 were investigated in fasted male Wistar rats (n = 3) and fed male cynomolgus monkeys (n = 4). Monkeys had been given 60 g of a primate diet (PS‐A; Oriental Yeast, Tokyo, Japan) one hour before administration. For intravenous administration, MGS0008 was dissolved in saline (pH7.4) and administered to rats (3 mg/kg) and monkeys (1 mg/kg). Blood samples were collected from the tail vein (rats) or the forelimb cephalic vein (monkeys) into tubes containing EDTA‐2K at 5, 15, and 30 minutes and at 1, 2, 4, 8, and 24 hours postdose for both species, and an additional sample was collected at 12 hours postdose for monkeys. Urine samples were collected until 48 hours at 24‐hour intervals (rats) or at 0‐ to 8‐hour, 8‐ to 24‐hour, and 24‐ to 48‐hour intervals (monkeys). The plasma or urine samples was mixed with acetonitrile/methanol (9:1, v/v) containing [^13C2 ^15N]MGS0008 and centrifuged. Aliquots of the supernatant were subjected to bioanalysis using LC‐MS/MS (see Table S1‐E). For oral administration, MGS0008 was dissolved in distilled water (rats) or 0.5% w/v methylcellulose 400 (monkeys) and administered to rats (3 mg/kg) and monkeys (1 mg/kg). MGS0274 besylate was suspended in 0.5% w/v methylcellulose 400 containing 0.1% v/v Tween 80 and administered to monkeys at a dose of 2.89 mg/kg (1‐mg equivalent of MGS0008/kg). Blood samples were collected from the tail vein (rats) or the forelimb cephalic vein (monkeys) into tubes containing EDTA‐2K at 30 minutes, 1, 1.5, 2, 4, 6, 8, and 24 hours postdose for rats, and 30 minutes, 1, 2, 4, 8, 12, and 24 hours postdose for monkeys. The plasma samples were mixed with acetonitrile/methanol (9:1, v/v) containing internal standards ([^13C2 ^15N]MGS0008 and MGS0039) and centrifuged. Aliquots of the supernatant were subjected to bioanalysis using LC‐MS/MS (see Tables S1‐E and F). In the study examining the tissue distribution of MGS0008 in rats (3 mg/kg), blood samples were collected from the posterior vena cava into tubes containing EDTA‐2K under isoflurane anesthesia at 1.5, 4, 6, or 24 hours postdose. Then, the animals were euthanized by exsanguination from the abdominal aorta; cerebrospinal fluid (CSF) samples were drawn from the spinal cord space in each animal. The plasma or CSF was mixed with acetonitrile/methanol (9:1, v/v) containing [^13C2 ^15N]MGS0008 and centrifuged. Aliquots of the supernatant were subjected to bioanalysis using LC‐MS/MS (see Table S1‐E).
The plasma concentration‐time profiles of MGS0008 and MGS0274 were analyzed using a non‐compartmental analysis method with pharmacokinetic analysis software Phoenix® WinNonlin® 6.2 or later (Certara, Princeton, NJ).

[2] = test system: monkey cryopreserved hepatocytes; test: In vitro metabolite profiling in monkey cryopreserved hepatocytes; type: in vitro ADME; conditions: monkey hepatocytes
Experimental: Rat, monkey, or human cryopreserved hepatocytes in Leivovitz L‐15 medium at 0.5 million cells/mL were incubated at 37°C for 1 hour with [^14C]MGS0274 besylate at 10 μmol/L. The reaction was terminated by adding 10% w/v trichloroacetic acid solution, and the resultant mixture was centrifuged. Aliquots of the supernatant were subjected to bioanalysis using high‐performance liquid chromatography equipped with radiochemical flow detection (RI‐HPLC) (see Table S1‐B). Aliquots of the supernatant from unlabeled incubation samples and authentic standards were also injected into a liquid chromatography‐mass spectrometry (LC‐MS) system under the same chromatographic conditions to compare their chromatographic retention times and mass spectral data (see Table S1‐B).

[3] = Pharmacokinetics after oral MGS0274 besylate in monkeys; type: in vivo, cynomolgus monkey; conditions: fed male monkeys, MGS0274 besylate oral 2.89 mg/kg
Experimental: The pharmacokinetic profiles of MGS0008 and MGS0274 were investigated in fasted male Wistar rats (n = 3) and fed male cynomolgus monkeys (n = 4). Monkeys had been given 60 g of a primate diet (PS‐A; Oriental Yeast, Tokyo, Japan) one hour before administration. For intravenous administration, MGS0008 was dissolved in saline (pH7.4) and administered to rats (3 mg/kg) and monkeys (1 mg/kg). Blood samples were collected from the tail vein (rats) or the forelimb cephalic vein (monkeys) into tubes containing EDTA‐2K at 5, 15, and 30 minutes and at 1, 2, 4, 8, and 24 hours postdose for both species, and an additional sample was collected at 12 hours postdose for monkeys. Urine samples were collected until 48 hours at 24‐hour intervals (rats) or at 0‐ to 8‐hour, 8‐ to 24‐hour, and 24‐ to 48‐hour intervals (monkeys). The plasma or urine samples was mixed with acetonitrile/methanol (9:1, v/v) containing [^13C2 ^15N]MGS0008 and centrifuged. Aliquots of the supernatant were subjected to bioanalysis using LC‐MS/MS (see Table S1‐E). For oral administration, MGS0008 was dissolved in distilled water (rats) or 0.5% w/v methylcellulose 400 (monkeys) and administered to rats (3 mg/kg) and monkeys (1 mg/kg). MGS0274 besylate was suspended in 0.5% w/v methylcellulose 400 containing 0.1% v/v Tween 80 and administered to monkeys at a dose of 2.89 mg/kg (1‐mg equivalent of MGS0008/kg). Blood samples were collected from the tail vein (rats) or the forelimb cephalic vein (monkeys) into tubes containing EDTA‐2K at 30 minutes, 1, 1.5, 2, 4, 6, 8, and 24 hours postdose for rats, and 30 minutes, 1, 2, 4, 8, 12, and 24 hours postdose for monkeys. The plasma samples were mixed with acetonitrile/methanol (9:1, v/v) containing internal standards ([^13C2 ^15N]MGS0008 and MGS0039) and centrifuged. Aliquots of the supernatant were subjected to bioanalysis using LC‐MS/MS (see Tables S1‐E and F). In the study examining the tissue distribution of MGS0008 in rats (3 mg/kg), blood samples were collected from the posterior vena cava into tubes containing EDTA‐2K under isoflurane anesthesia at 1.5, 4, 6, or 24 hours postdose. Then, the animals were euthanized by exsanguination from the abdominal aorta; cerebrospinal fluid (CSF) samples were drawn from the spinal cord space in each animal. The plasma or CSF was mixed with acetonitrile/methanol (9:1, v/v) containing [^13C2 ^15N]MGS0008 and centrifuged. Aliquots of the supernatant were subjected to bioanalysis using LC‐MS/MS (see Table S1‐E). The plasma concentration‐time profiles of MGS0008 and MGS0274 were analyzed using a non‐compartmental analysis method with pharmacokinetic analysis software Phoenix® WinNonlin® 6.2 or later (Certara, Princeton, NJ).

[4] = CSF, read-out: CSF concentration
[5] = plasma, read-out: Plasma concentration
[6] = cynomolgus monkey, plasma, compound monitored MGS0274, mean of two animals

Row | Compound | Kp ([1]; CSF/plasma, read-out: CSF/plasma AUC ratio) | concentration at 1.5 h [1, 4] [ng/mL] | concentration at 4 h [1, 4] [ng/mL] | concentration at 6 h [1, 4] [ng/mL] | concentration at 24 h [1, 4] [ng/mL] | AUC(0-t) ([1]; CSF, read-out: AUC0–24h in CSF) [ng·h/mL] | concentration at 1.5 h [1, 5] [ng/mL] | concentration at 4 h [1, 5] [ng/mL] | concentration at 6 h [1, 5] [ng/mL] | concentration at 24 h ([1]; plasma, below lower limit of quantification, read-out: Plasma concentration) [ng/mL] | AUC(0-t) ([1]; plasma, read-out: AUC0–24h in plasma) [ng·h/mL] | further metabolism of MGS0008 in hepatocytes [2] | Cmax [3, 6] [ng/mL] | Tmax [3, 6] [h] | AUC(0-t) ([3]; cynomolgus monkey, plasma, compound monitored MGS0274, mean of two animals, read-out: AUC0–24h of MGS0274) [ng·h/mL] | vomiting [3] | MGS0274 in plasma ([3]; lower limit of quantification 1 ng/mL, 2.89 mg/kg)
1 | N[C@]1(C(=O)O)[C@H]2[C@@H](C[C@@H]1F)[C@@H]2C(=O)O [MGS0008, (1S,2S,3S,5R,6S)‐2‐amino‐3‐fluorobicyclo[3.1.0]hexane‐2,6‐dicarboxylic acid] | 0.028 | 19.1 ± 5.08 | 7.88 ± 1.04 | 4.84 ± 0.384 | 2.04 ± 0.0265 | 123 ± 7.37 | 1980 ± 431 | 138 ± 64.2 | 6.23 ± 1.83 | < 3 | 4330 ± 719 | no metabolites | – | – | – | – | –
2 | CC(C)[C@@H]1CC[C@@H](C)C[C@H]1OC(=O)O[C@@H](C)OC(=O)[C@H]1[C@@H]2C[C@H](F)[C@@](N)(C(=O)O)[C@@H]21.O=S(=O)(O)c1ccccc1 [MGS0274 besylate, (1S,2S,3S,5R,6S)‐2‐amino‐3‐fluoro‐6‐({(1S)‐1‐[({[(1R,2S,5R)‐5‐methyl‐2‐(propan‐2‐yl)cyclohexyl]oxy}carbonyl)oxy]ethoxy}carbonyl)bicyclo[3.1.0]hexane‐2‐carboxylic acid monobenzenesulfonate] | – | – | – | – | – | – | – | – | – | – | – | – | 1.28 | 1 | 2.03 | two of the four monkeys experienced vomiting | barely detectable; also recorded: barely detected
